Results reported in patent publication US9765213B2, “Drug carriers comprising amphilphilic block copolymers” (BIOCOMPATIBLES UK LIMITED, priority 2002, dated 2017).
Structures can show the parent of a compound that is named as a salt. Numbered stars: 1 amine (or outer) side, 2 acyl side, 3 side chain; on linkers, the order of the positions; unused ones are H or OH. Bridge positions count the residues as written; N and C are the ends. Square brackets hold non-standard residues; d marks the D form. Peptide text beside a SMILES is read from it. I, II: the chains in the order shown. Actinocin(9to1) = Cc1c2oc3c(C)ccc(C(=O)[*:1])c3nc-2c(C(=O)[*:2])c(N)c1=O; NMeV = CN[C@H](C(=O)O)C(C)C; Sar = CNCC(=O)O

Key:
[1] = octanol/water; determined experimentally, literature; cited from earlier work
[2] = Dipyridamole loading by pH change; type: physicochemical
Experimental: In another example of drug loading, a solution of the drug dipyridamole was used given the intensely coloured nature of the drug allows simple detection. At pH 2 this drug was dissolved to give a fluorescent green-yellow solution. By adjusting the pH to 9-10 the drug was seen to precipitate.

[3] = Release of solubilised Orange OT dye from micelles by lowered pH (particle size); type: physicochemical
Source text: The release of solubilised Orange OT dye from micelles, as a model for drug release, using lowered pH as the stimuli was examined.

Row | Compound | LogP (Exp) [1] | other results
1 | Nc1nc2nc[nH]c2c(=S)[nH]1 [6-Thioguanine] | −0.28 | 
2 | Cc1c2oc3c(C)ccc(C(=O)N[C@@H]4C(=O)N[C@H](C(C)C)C(=O)N5CCC[C@H]5C(=O)N(C)CC(=O)N(C)[C@@H](C(C)C)C(=O)O[C@@H]4C)c3nc-2c(C(=O)N[C@@H]2C(=O)N[C@H](C(C)C)C(=O)N3CCC[C@H]3C(=O)N(C)CC(=O)N(C)[C@@H](C(C)C)C(=O)O[C@@H]2C)c(N)c1=O [Actinomycin] (I: T[dV]P[Sar][NMeV] / II: T[dV]P[Sar][NMeV]; ester I:1-I:C, II:1-II:C; linker I:N-II:N via Actinocin(9to1)) | 0.997 | 
3 | COCc1c(C(C)C)nc(C(C)C)c(/C=C/[C@@H](O)C[C@@H](O)CC(=O)O)c1-c1ccc(F)cc1 [Cerivastatin] | 2.05 | 
4 | O=C1CCc2cc(OCCCCc3nnnn3C3CCCCC3)ccc2N1 [Cilostazol] | 2.3 | 
5 | OCCN(CCO)c1nc(N2CCCCC2)c2nc(N(CCO)CCO)nc(N3CCCCC3)c2n1 [Dipyramidole] |  | solubility behaviour of the drug ([2]; pH 2): dissolved; solubility behaviour of the drug ([2]; pH 9-10): precipitate
6 | C[C@]12CC[C@@H]3c4ccc(O)cc4CC[C@H]3[C@@H]1CC[C@@H]2O [Estradiol] | 4.3 | 
7 | COc1cc([C@@H]2c3cc4c(cc3[C@@H](O[C@@H]3O[C@@H]5CO[C@@H](C)O[C@H]5[C@H](O)[C@H]3O)[C@H]3COC(=O)[C@H]23)OCO4)cc(OC)c1O [Etoposide] | 0.99 | 
8 | O=c1[nH]cc(F)c(=O)[nH]1 [Fluorouracil] | −1 | 
9 | CC(C)n1c(/C=C/C(O)CC(O)CC(=O)O)c(-c2ccc(F)cc2)c2ccccc21 (centres unmarked) [Fluvastatin] | 1.67 | 
10 | CC[C@H](C)C(=O)O[C@H]1C[C@@H](C)C=C2C=C[C@H](C)[C@H](CC[C@@H]3C[C@@H](O)CC(=O)O3)[C@H]21 [Lovastatin] | 1.7 | 
11 | Cc1ccccc1N=Nc1c(O)ccc2ccccc12 [Orange OT] |  | share of the particle population ([3]; pH 4.5, after release from MPC30-DEA60 micelles): 1%; mean particle diameter of released dye aggregates ([3]; released from MPC30-DEA60 micelles, pH reduced to pH 4.5): 113 nm
12 | CC[C@H](C)C(=O)O[C@H]1C[C@H](O)C=C2C=C[C@H](C)[C@H](CC[C@@H](O)C[C@@H](O)CC(=O)O)[C@H]21 [Pravastatin] | −0.23 | 
13 | CC(=O)O[C@H]1C(=O)[C@@]2(C)[C@H]([C@H](OC(=O)c3ccccc3)[C@]3(O)C[C@H](OC(=O)[C@H](O)[C@@H](NC(=O)c4ccccc4)c4ccccc4)C(C)=C1C3(C)C)[C@]1(OC(C)=O)CO[C@@H]1C[C@@H]2O [Taxol] | 3.98 | 
14 | CC[C@]1(O)C[C@@H]2CN(CCc3c([nH]c4ccccc34)[C@@](C(=O)OC)(c3cc4c(cc3OC)N(C)[C@H]3[C@@](O)(C(=O)OC)[C@H](OC(C)=O)[C@]5(CC)C=CCN6CC[C@]43[C@@H]65)C2)C1 [Vinblastine] | 1.68 | 
15 | CC[C@]1(O)C[C@H]2CN(CCc3c([nH]c4ccccc34)[C@@](C(=O)OC)(c3cc4c(cc3OC)N(C=O)[C@H]3[C@@](O)(C(=O)OC)[C@H](OC(C)=O)[C@]5(CC)C=CCN6CC[C@]43[C@@H]65)C2)C1 [Vincristine Sulfate] | 2.14 | 
